Source: patent US20080199422A1, “Method for the Treatment of Myelodysplastic Syndromes Using 1-Oxo-2-(2,6-Dioxopiperidin-3-Yl-)-4-Methylisoindoline” (CELGENE CORPORATION, priority 2004, published 2008)
Like-named read-outs stand apart in the source and are kept apart here. Values belong to the compound of their own block, whether it stands above or below them.

Key:
TNF-α production [1] = settings: human PBMC, cited from earlier work; for IC50: LPS, read-out: IC50 for inhibiting production of TNF-α following LPS-stimulation of PBMC
MDS patients [2] = assay: Expanded clinical study, additional 16 MDS patients; format: in vivo, human
Excerpt: The clinical study was expanded with additional 16 MDS patients for at least eight weeks. According to the IPSS, 13 of these patients were categorized as low- or intermediate-1-risk patients and three patients were grouped as intermediate-2- or high-risk patients. According to the FAB classification, there were 11 patients with refractory anemia (RA) or RA with ringed sideroblasts (RARS), and five patients with RA with excess blasts (RAEB), RAEB in transformation (RAEB-T). The starting dose of 3-(4-amino-1-oxo-1,3-dihydro-isoindol-2-yl)-piperidine-2,6-dione was 25 mg daily for the first 13 patients and 10 mg daily for the remaining three patients. All patients receiving the starting dose of 25 mg required dose reduction by the completion of eight weeks therapy. Among these 16 patients who completed at least 8 weeks of monitoring, nine patients achieved an erythroid response as assessed by the International MDS Working Group Criteria. The erythroid responses consisted of transfusion independence in seven previously transfusion-dependent patients, a >2 g/dL rise in blood hemoglobin concentration in one patient in with transfusion-independent anemia, and a >50% decrease in RBC transfusion requirement in one transfusion-dependent patient. […] In addition, complete cytogenetic responses developed in five in eight patients with abnormal karyotypes at baseline. These five patients with complete cytogenetic responses all had the Del5q3 1-33 abnormality, which has been discovered to be a good prognostic factor for MDS. Indeed, all five patients who enrolled in this study with 5q-syndrome achieved a complete cytogenetic response and a major erythroid response. The study also indicated an association of this therapy with an increased apoptotic index for myelodysplastic progenitors and recovery of normal hematopoietic progenitor cells.

[3] = system: MDS bone marrow progenitor formation; assay: MDS vs normal bone marrow progenitor formation in pre-clinical models; format: cell-based
Excerpt: (§1) The pharmacological effects of 3-(4amino-1-oxo-1,3-dihydro-isoindol-2-yl)-piperidine-2,6-dione derive from its action as an inhibitor of cellular response to receptor-initiated trophic signals (e.g., IGF-1, VEGF, cyclooxygenase-2), and other activities. As a result, 3-(4-amino-1-oxo-1,3-dihydro-isoindol-2-yl)-piperidine-2,6-dione suppresses the generation of inflammatory cytokines, down-regulates adhesion molecules and apoptosis inhibitory proteins (e.g., cFLIP, cIAP), promotes sensitivity to death-receptor initiated programmed cell death, and suppresses angiogenic response.

TNF-α production [4] = settings: cited from earlier work
AML cells = assay: Mitogenic response to VEGF in AML cells; format: cell-based; settings: by extinguishing ligand-induced Akt-phosphorylation
Excerpt: as §1

MDS patients [5] = assay: Clinical study in MDS patients with transfusion-dependence or symptomatic anemia; format: in vivo, human
Protocol: Clinical studies were performed for the remitting potential of 3-(4-amino-1-oxo-1,3-dihydro-isoindol-2-yl)-piperidine-2,6-dione in MDS patients with red blood cell transfusion-dependence (>4 units/8 weeks) or symptomatic anemia (Hgb<10 g/dl). Patients received continuous treatment with 3-(4-amino-1-oxo-1,3-dihydro-isoindol-2-yl)-piperidine-2,6-dione at a oral dose of 25 mg daily. Responses were assessed according to IWG criteria after 16 weeks of treatments. Among 15 patients receiving the treatments, 11 patients were evaluable for toxicity, nine patients were evaluable for response (>8 wks therapy), and three patients discontinued the therapy prematurely (<2 weeks) due to cholecystitis, autoimmune hemolytic anemia, or patient refusal. Median age of the patients was 78 years ranging from 51 to 82 years. FAB types of the MDS patients include RA [4 patients], RARS [4 patients], RABB [6 patients], and RAEB-T [1 patient] with corresponding IPSS categories of Low/Int-1 in 11 patients and Int-2/High in four patients. Myelosuppression, which was characterized by higher than grade 3 common toxicity criteria or 50% decrease in leukocyte and platelet counts [9 patients], and grade 3 fatigue [1 patient], necessitated dose reduction to 10 mg in the initial ten patients. All subsequent patients initiated oral administrations with 10 mg daily. Grade 1, 2 drug-related adverse effects were limited to the 25 mg dose and included pruritus or itchy scalp [6 patients] and myalgia [1 patient]. Six (66%) of nine evaluable patients experienced hematologic benefit (dual lineage, 1 patient), including 6/7 (86%) patients with IPSS Low/Int-1. Hematologic responses included RBC transfusion-independence [4 patients], decrease in RBC transfusions of more than 50% [1 patient], increase in Hgb of more than 1.5 g [1 patient], and one minor platelet response (increase of more than 30,000/μL ). Among five patients evaluable for cytogenetic response, three patients achieved either a complete or partial (decrease in abnormal metaphases of more than 50%) remission. […] Correlation with changes in apoptotic index, angiogenic features (cellular/plasma VEGF, micro vessel density), cytokine generation, and proliferative fraction (Ki67) are in progress. […] Clinical benefit appears greatest in patients with low/intermediate-1 disease or the 5q-syndrome, associated with resolution of cytology dysplasia.

MDS patients [6] = settings: cited from earlier work
[7] = 25 mg daily, initial ten patients, necessitated dose reduction to 10 mg

Compound: O=C1CCC(N2C(=O)c3ccccc3C2=O)C(=O)N1 (racemic) [Thalidomide, 2-(2,6-dioxo-3-piperidinyl)-1H-isoindole-1,3(2H)-dione, reference compound]
- IC50 (TNF-α production [1]): ~194000 nM
- IC50 for inhibiting production of TNF-α following LPS-stimulation of PBMC (TNF-α production [1]): ~50.2 µg/mL

- patients requiring dose reduction by completion of eight weeks therapy (MDS patients [2]; starting dose of 25 mg (first 13 patients)): All patients
- grade 3 fatigue (MDS patients [5]; [7]): 1 patient
- Grade 1, 2 drug-related myalgia (MDS patients [5]; 25 mg dose): 1 patient
- Grade 1, 2 drug-related pruritus or itchy scalp (MDS patients [5]; 25 mg dose): 6 patients
Compound: Nc1cccc2c1CN(C1CCC(=O)NC1=O)C2=O (stereo not drawn) [3-(4-amino-1-oxo-1,3-dihydro-isoindol-2-yl)-piperidine-2,6-dione]
- erythroid response (International MDS Working Group Criteria) (MDS patients [2]; among 16 patients, at least 8 weeks, start 25 mg or 10 mg daily): nine
- complete cytogenetic responses (MDS patients [2]; in eight patients with abnormal karyotypes at baseline): five
- major erythroid response (MDS patients [2]; of 16 patients): eight
- minor erythroid response (MDS patients [2]; of 16 patients): one
- minor platelet response (MDS patients [2]; of 16 patients): One
- complete cytogenetic response and major erythroid response in 5q-syndrome (MDS patients [2]; patients enrolled with 5q-syndrome): all five
- transfusion independence (MDS patients [2]; previously transfusion-dependent patients): seven
- >50% decrease in RBC transfusion requirement (MDS patients [2]; transfusion-dependent patient): one
- >2 g/dL rise in blood hemoglobin concentration (MDS patients [2]; transfusion-independent anemia): one
- MDS vs normal bone marrow progenitor formation [3]: selectively suppresses
- IC50 for inhibiting production of TNF-α following LPS-stimulation of human whole blood (TNF-α production [4]): ~0.1036 µg/mL
- IC50 (TNF-α production [4]; human whole blood, LPS, read-out: IC50 for inhibiting production of TNF-α following LPS-stimulation of human whole blood): ~480 nM
- IC50 (TNF-α production [1]): ~100 nM
- IC50 for inhibiting production of TNF-α following LPS-stimulation of PBMC (TNF-α production [1]): ~0.0259 µg/mL
- mitogenic response to VEGF (AML cells): abrogates mitogenic response to VEGF
- tolerability (MDS patients [5]; 10 mg continuous oral daily dose): well-tolerated with minimal myelosuppression
- myelosuppression (higher than grade 3 common toxicity criteria or 50% decrease in leukocyte and platelet counts) (MDS patients [5]; [7]): 9 patients
- patients with hematologic benefit, IPSS Low/Int-1 (MDS patients [5]; 6/7 patients with IPSS Low/Int-1): 86%
- complete or partial cytogenetic remission (decrease in abnormal metaphases of more than 50%) (MDS patients [5]; among five patients evaluable for cytogenetic response): three
- RBC transfusion-independence (MDS patients [5]; of nine evaluable patients): 4 patients
- decrease in RBC transfusions of more than 50% (MDS patients [5]; of nine evaluable patients): 1 patient
- increase in Hgb of more than 1.5 g (MDS patients [5]; of nine evaluable patients): 1 patient
- minor platelet response (increase of more than 30,000/μL) (MDS patients [5]; of nine evaluable patients): one
- erythropoietic and cytogenetic remitting activity (MDS patients [5]; patients with low/intermediate-1 risk MDS): remarkable erythropoietic and cytogenetic remitting activity
- normalization of blast percentage (MDS patients [5]; responders): 1 patient
- patients with hematologic benefit (MDS patients [5]; six of nine evaluable patients, oral 25 mg daily, reduced to 10 mg, IWG criteria): 66%

Compound: recombinant human EPO: recombinant human erythropoietin (EPO), hematopoietic growth factor
- patients with sustained improvement in hemoglobin or decrease in transfusion requirement (MDS patients [6]): less than 25%
